# System: HCV replicon (1B Replicon)
# Experiment: HCV replicon assay, inhibition of viral replication (luciferase)
# Assay type: cell-based
# Settings: Hepatitis C virus, 72 h; 10 uM compound; human hepatoma Huh-7 HCV replicon cells; 3 days incubation; luminescence; read-out: % inh at 10 uM (1B Replicon)
# Method: The anti-HCV activity of the compounds of this invention was tested in a human hepatoma Huh-7 cell line harboring a HCV replicon. The assay comprised the following steps:
# Serial dilution was performed in 100% DMSO in a 384-well plate. A solution containing a compound at 225-fold concentration of the starting final serial dilution concentration was prepared in 100% DMSO and 15 uL added to the pre-specified wells in column 3 or 13 of a polypropylene 384-well plate. The rest of the 384-well plate was filled with 10 uL 100% DMSO except for columns 23 and 24, where 10 uL of 500 uM a HCV protease inhibitor (ITMN-191) in 100% DMSO was added. The HCV protease inhibitor was used a control of 100% inhibition of HCV replication. The plate was then placed on a Biomek FX Workstation to start the serial dilution. The serial dilution was performed for ten cycles of 3-fold dilution from column 3 to 12 or from column 13 to 22.
# To each well of a black polypropylene 384-well plate, 90 μL of cell media containing 1600 suspended Huh-7 HCV replicon cells was added with a Biotek uFlow Workstation. A volume of 0.4 μL of the compound solution was transferred from the serial dilution plate to the cell culture plate on a Biomek FX Workstation. The DMSO concentration in the final assay condition was 0.44%. The plates were incubated for 3 days at 37° C. with 5% CO2 and 85% humidity.
# b) Assessment of inhibition of viral replication: The calcein-PBS solution in the 384-well cell culture plate was aspirated with a Biotek EL405 plate-washer. A volume of 20 μL of Dual-Glo luciferase buffer (Promega, Dual-Glo Luciferase Assay Reagent, cat. #E298B) was added to each well of the plate with a Biotek uFlow Workstation. The plate was incubated for 10 minutes at room temperature. A volume of 20 μL of a solution containing 1:100 mixture of Dual-Glo Stop & Glo substrate (Promega, Dual-Glo Luciferase Assay Reagent, cat. #E313B) and Dual-Glo Stop & Glo buffer (Promega, Dual-Glo Luciferase Assay Reagent, cat. #E314B) was then added to each well of the plate with a Biotek uFlow Workstation. The plate was incubated at room temperature for 10 minutes before the luminescence signal was measured with a Perkin Elmer Envision Plate Reader.
# The percent cytotoxicity was determined by calcein AM conversion to fluorescent product. The average fluorescent signal from the DMSO control wells were defined as 100% nontoxic. The individual fluorescent signal from testing compound treated well was divided by the average signal from DMSO control wells and then multiplied by 100% to get the percent viability. The percent anti-HCV replication activity was determined by the luminescence signal from the testing well compared to DMSO controls wells. The background signal was determined by the average luminescence signal from the HCV protease inhibitor treated wells and was subtracted from the signal from the testing wells as well as the DMSO control wells. Following 3-fold serial dilutions, the EC50 and CC50 values were calculated by fitting % inhibition at each concentration to the following equation: % inhibition=100%/[(EC50/[I])^b+1]
# % inhibition values at any specific concentration, for example 10 μM, can also be derived from the formula above.
row,Structure (SMILES),inhibition at 10 µM
1,Fc1ccccc1-c1cc2ncn(Cc3cc(-c4ccc(C(F)(F)F)cc4C(F)(F)F)no3)cc-2n1,99.6%
2,Fc1ccccc1-c1cc2ncn(Cc3nnc(-c4ccc(C(F)(F)F)cc4C(F)(F)F)s3)cc-2n1,100%
3,COc1ccc(-c2nnc(Cn3cnc4cc(-c5ccccc5F)nc-4c3)s2)c(C(F)(F)F)c1,100%
4,Fc1ccccc1-c1cc2ccn(Cc3cc(-c4ccc(C(F)(F)F)cc4C(F)(F)F)no3)nc-2n1,77%
5,Fc1ccccc1-c1cc2ncn(Cc3ccc(-c4ccc(C(F)(F)F)cc4C(F)(F)F)nn3)cc-2n1,100%
6,COc1ccc(-c2nnc(Cn3ccc4cc(-c5ccccc5F)nc-4n3)s2)c(C(F)(F)F)c1,98.1%
7,Fc1ccccc1-c1cc2ccn(Cc3ccc(-c4ccc(C(F)(F)F)cc4C(F)(F)F)nn3)nc-2n1,97.4%
8,COc1ccc(-c2nnc(Cn3cnc4c(Br)c(-c5ccccc5F)nc-4c3)s2)c(C(F)(F)F)c1,100%
9,COc1ccc(-c2nnc(Cn3cnc4c(C#Cc5cncnc5)c(-c5ccccc5F)nc-4c3)s2)c(C(F)(F)F)c1,97.8%
10,COc1ccc(-c2nnc(Cn3cnc4c(Cl)c(-c5ccccc5F)nc-4c3)s2)c(C(F)(F)F)c1,100%
11,COc1ccc(-c2nnc(Cn3cnc4c(C(N)=O)c(-c5ccccc5F)nc-4c3)s2)c(C(F)(F)F)c1,36.6%
12,COc1ccc(-c2nnc(Cn3cnc4c(C#N)c(-c5ccccc5F)nc-4c3)s2)c(C(F)(F)F)c1,99.9%

# Reference: patent US8815858B2, “Heterocyclic flaviviridae virus inhibitors” (Gilead Sciences, Inc., priority 2010, dated 2014)
